# PubChem BioAssay (NCI)
#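 Each compound was tested at five concentrations against cells in 96-well plates for 48 hours. TGI: total growth inhibition.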
# How the values were obtained:
# Test in all cases: NCI anticancer screen, dose series, 48 h
# 786-0 renal = system: 786-0 renal
# A498 renal = system: A498 renal
# A549 NSCLC = system: A549 NSCLC
# ACHN renal = system: ACHN renal
# CCRF-CEM leukemia = system: CCRF-CEM leukemia
# COLO 205 colon = system: COLO 205 colon
# DU-145 prostate = system: DU-145 prostate
# EKVX NSCLC = system: EKVX NSCLC
# HCC-2998 colon = system: HCC-2998 colon
# HCT-116 colon = system: HCT-116 colon
# HCT-15 colon = system: HCT-15 colon
# HL-60(TB) leukemia = system: HL-60(TB) leukemia
# HOP-62 NSCLC = system: HOP-62 NSCLC
# HOP-92 NSCLC = system: HOP-92 NSCLC
# HS 578T breast = system: HS 578T breast
# HT29 colon = system: HT29 colon
# IGROV1 ovarian = system: IGROV1 ovarian
# K-562 leukemia = system: K-562 leukemia
# KM12 colon = system: KM12 colon
# LOX IMVI melanoma = system: LOX IMVI melanoma
# M14 melanoma = system: M14 melanoma
# MALME-3M melanoma = system: MALME-3M melanoma
# MDA-MB-231 breast = system: MDA-MB-231 breast
# MDA-MB-435 = system: MDA-MB-435
# MDA-N = system: MDA-N
# MOLT-4 leukemia = system: MOLT-4 leukemia
# NCI-H226 lung = system: NCI-H226 lung
# NCI-H23 lung = system: NCI-H23 lung
# NCI-H460 lung = system: NCI-H460 lung
# NCI-H522 lung = system: NCI-H522 lung
# NCI/ADR-RES ovarian = system: NCI/ADR-RES ovarian
# OVCAR-3 ovarian = system: OVCAR-3 ovarian
# OVCAR-4 ovarian = system: OVCAR-4 ovarian
# OVCAR-5 ovarian = system: OVCAR-5 ovarian
# OVCAR-8 ovarian = system: OVCAR-8 ovarian
# PC-3 prostate = system: PC-3 prostate
# RPMI-8226 leukemia = system: RPMI-8226 leukemia
# RXF 393 renal = system: RXF 393 renal
# SF-268 CNS = system: SF-268 CNS
# SF-295 CNS = system: SF-295 CNS
# SF-539 CNS = system: SF-539 CNS
# SK-MEL-2 melanoma = system: SK-MEL-2 melanoma
# SK-MEL-28 melanoma = system: SK-MEL-28 melanoma
# SK-MEL-5 melanoma = system: SK-MEL-5 melanoma
# SN12C renal = system: SN12C renal
# SNB-19 CNS = system: SNB-19 CNS
# SNB-75 CNS = system: SNB-75 CNS
# SR leukemia = system: SR leukemia
# SW-620 colon = system: SW-620 colon
# T-47D breast = system: T-47D breast
# U251 CNS = system: U251 CNS
# UACC-257 melanoma = system: UACC-257 melanoma
# UACC-62 melanoma = system: UACC-62 melanoma
# UO-31 renal = system: UO-31 renal
# CAKI-1 renal = system: CAKI-1 renal
# MCF7 breast = system: MCF7 breast
# SK-OV-3 ovarian = system: SK-OV-3 ovarian
# TK-10 renal = system: TK-10 renal
smiles,measurement,setting,value
C#CCCOC1(OC)N=NC(C)(C)O1 (stereo not drawn),TGI,786-0 renal,> 100 µM
same,TGI,A498 renal,> 100 µM
same,TGI,A549 NSCLC,> 100 µM
same,TGI,ACHN renal,> 100 µM
same,TGI,CCRF-CEM leukemia,> 100 µM
same,TGI,COLO 205 colon,> 100 µM
same,TGI,DU-145 prostate,> 100 µM
same,TGI,EKVX NSCLC,> 100 µM
same,TGI,HCC-2998 colon,> 100 µM
same,TGI,HCT-116 colon,> 100 µM
same,TGI,HCT-15 colon,> 100 µM
same,TGI,HL-60(TB) leukemia,> 100 µM
same,TGI,HOP-62 NSCLC,> 100 µM
same,TGI,HOP-92 NSCLC,> 100 µM
same,TGI,HS 578T breast,> 100 µM
same,TGI,HT29 colon,> 100 µM
same,TGI,IGROV1 ovarian,> 100 µM
same,TGI,K-562 leukemia,> 100 µM
same,TGI,KM12 colon,> 100 µM
same,TGI,LOX IMVI melanoma,> 100 µM
same,TGI,M14 melanoma,> 100 µM
same,TGI,MALME-3M melanoma,> 100 µM
same,TGI,MDA-MB-231 breast,> 100 µM
same,TGI,MDA-MB-435,> 100 µM
same,TGI,MDA-N,> 100 µM
same,TGI,MOLT-4 leukemia,> 100 µM
same,TGI,NCI-H226 lung,> 100 µM
same,TGI,NCI-H23 lung,> 100 µM
same,TGI,NCI-H460 lung,> 100 µM
same,TGI,NCI-H522 lung,> 100 µM
same,TGI,NCI/ADR-RES ovarian,> 100 µM
same,TGI,OVCAR-3 ovarian,> 100 µM
same,TGI,OVCAR-4 ovarian,> 100 µM
same,TGI,OVCAR-5 ovarian,> 100 µM
same,TGI,OVCAR-8 ovarian,> 100 µM
same,TGI,PC-3 prostate,> 100 µM
same,TGI,RPMI-8226 leukemia,> 100 µM
same,TGI,RXF 393 renal,> 100 µM
same,TGI,SF-268 CNS,> 100 µM
same,TGI,SF-295 CNS,> 100 µM
same,TGI,SF-539 CNS,> 100 µM
same,TGI,SK-MEL-2 melanoma,> 100 µM
same,TGI,SK-MEL-28 melanoma,> 100 µM
same,TGI,SK-MEL-5 melanoma,> 100 µM
same,TGI,SN12C renal,> 100 µM
same,TGI,SNB-19 CNS,> 100 µM
same,TGI,SNB-75 CNS,> 100 µM
same,TGI,SR leukemia,> 100 µM
same,TGI,SW-620 colon,> 100 µM
same,TGI,T-47D breast,> 100 µM
same,TGI,U251 CNS,> 100 µM
same,TGI,UACC-257 melanoma,> 100 µM
same,TGI,UACC-62 melanoma,> 100 µM
same,TGI,UO-31 renal,> 100 µM
CC(=O)NCC1(c2ccccc2)CCN(CC2COc3ccccc3O2)CC1 (stereo not drawn),TGI,786-0 renal,> 100 µM
same,TGI,A498 renal,> 100 µM
same,TGI,A549 NSCLC,> 100 µM
same,TGI,ACHN renal,> 100 µM
same,TGI,CAKI-1 renal,> 100 µM
same,TGI,CCRF-CEM leukemia,> 100 µM
same,TGI,COLO 205 colon,> 100 µM
same,TGI,DU-145 prostate,> 100 µM
same,TGI,EKVX NSCLC,> 100 µM
same,TGI,HCC-2998 colon,> 100 µM
same,TGI,HCT-116 colon,> 100 µM
same,TGI,HCT-15 colon,> 100 µM
same,TGI,HL-60(TB) leukemia,> 100 µM
same,TGI,HOP-62 NSCLC,> 100 µM
same,TGI,HS 578T breast,> 100 µM
same,TGI,HT29 colon,> 100 µM
same,TGI,IGROV1 ovarian,> 100 µM
same,TGI,K-562 leukemia,> 100 µM
same,TGI,KM12 colon,> 100 µM
same,TGI,LOX IMVI melanoma,> 100 µM
same,TGI,M14 melanoma,> 100 µM
same,TGI,MALME-3M melanoma,> 100 µM
same,TGI,MCF7 breast,> 100 µM
same,TGI,MDA-MB-231 breast,> 100 µM
same,TGI,MDA-MB-435,> 100 µM
same,TGI,MDA-N,> 100 µM
same,TGI,MOLT-4 leukemia,> 100 µM
same,TGI,NCI-H226 lung,> 100 µM
same,TGI,NCI-H23 lung,> 100 µM
same,TGI,NCI-H460 lung,> 100 µM
same,TGI,NCI-H522 lung,> 100 µM
same,TGI,NCI/ADR-RES ovarian,> 100 µM
same,TGI,OVCAR-3 ovarian,> 100 µM
same,TGI,OVCAR-4 ovarian,> 100 µM
same,TGI,OVCAR-5 ovarian,> 100 µM
same,TGI,OVCAR-8 ovarian,> 100 µM
same,TGI,PC-3 prostate,> 100 µM
same,TGI,RPMI-8226 leukemia,> 100 µM
same,TGI,RXF 393 renal,> 100 µM
same,TGI,SF-268 CNS,> 100 µM
same,TGI,SF-295 CNS,> 100 µM
same,TGI,SF-539 CNS,> 100 µM
same,TGI,SK-MEL-2 melanoma,> 100 µM
same,TGI,SK-MEL-28 melanoma,> 100 µM
same,TGI,SK-MEL-5 melanoma,> 100 µM
same,TGI,SK-OV-3 ovarian,> 100 µM
same,TGI,SN12C renal,> 100 µM
same,TGI,SNB-19 CNS,> 100 µM
same,TGI,SNB-75 CNS,> 100 µM
same,TGI,SR leukemia,> 100 µM
same,TGI,SW-620 colon,> 100 µM
same,TGI,T-47D breast,> 100 µM
same,TGI,TK-10 renal,> 100 µM
same,TGI,U251 CNS,> 100 µM
same,TGI,UACC-257 melanoma,> 100 µM
same,TGI,UACC-62 melanoma,> 100 µM
same,TGI,UO-31 renal,> 100 µM
O=[N+]([O-])/C(Cl)=C(\Nc1ccccc1)C(Cl)=C(Cl)Cl,TGI,786-0 renal,> 100 µM
same,TGI,A498 renal,65.4 µM
same,TGI,A549 NSCLC,95 µM
same,TGI,ACHN renal,> 100 µM
same,TGI,CAKI-1 renal,> 100 µM
same,TGI,CCRF-CEM leukemia,42.9 µM
same,TGI,COLO 205 colon,39.5 µM
same,TGI,DU-145 prostate,> 100 µM
same,TGI,EKVX NSCLC,> 100 µM
same,TGI,HCC-2998 colon,94.4 µM
same,TGI,HCT-116 colon,> 100 µM
same,TGI,HCT-15 colon,66.6 µM
same,TGI,HL-60(TB) leukemia,40.1 µM
same,TGI,HOP-62 NSCLC,56.6 µM
same,TGI,HOP-92 NSCLC,69.5 µM
same,TGI,HS 578T breast,69.6 µM
same,TGI,HT29 colon,69.9 µM
same,TGI,IGROV1 ovarian,79 µM
same,TGI,K-562 leukemia,68.6 µM
same,TGI,KM12 colon,32 µM
same,TGI,LOX IMVI melanoma,88.5 µM
same,TGI,M14 melanoma,58.4 µM
same,TGI,MALME-3M melanoma,45.9 µM
same,TGI,MCF7 breast,60.4 µM
same,TGI,MDA-MB-231 breast,79.6 µM
same,TGI,MDA-MB-435,35.1 µM
same,TGI,MDA-N,> 100 µM
same,TGI,MOLT-4 leukemia,> 100 µM
same,TGI,NCI-H226 lung,78 µM
same,TGI,NCI-H23 lung,> 100 µM
same,TGI,NCI-H460 lung,> 100 µM
same,TGI,NCI-H522 lung,> 100 µM
same,TGI,NCI/ADR-RES ovarian,38.5 µM
same,TGI,OVCAR-3 ovarian,40.7 µM
same,TGI,OVCAR-4 ovarian,> 100 µM
same,TGI,OVCAR-5 ovarian,> 100 µM
same,TGI,OVCAR-8 ovarian,53.9 µM
same,TGI,PC-3 prostate,> 100 µM
same,TGI,RPMI-8226 leukemia,78.9 µM
same,TGI,RXF 393 renal,> 100 µM
same,TGI,SF-268 CNS,> 100 µM
same,TGI,SF-295 CNS,94 µM
same,TGI,SF-539 CNS,47.4 µM
same,TGI,SK-MEL-2 melanoma,91.6 µM
same,TGI,SK-MEL-28 melanoma,> 100 µM
same,TGI,SK-MEL-5 melanoma,47 µM
same,TGI,SK-OV-3 ovarian,> 100 µM
same,TGI,SN12C renal,> 100 µM
same,TGI,SNB-19 CNS,> 100 µM
same,TGI,SNB-75 CNS,20.5 µM
same,TGI,SR leukemia,69.9 µM
same,TGI,T-47D breast,> 100 µM
same,TGI,TK-10 renal,> 100 µM
same,TGI,U251 CNS,> 100 µM
same,TGI,UACC-257 melanoma,> 100 µM
same,TGI,UACC-62 melanoma,94.5 µM
same,TGI,UO-31 renal,> 100 µM
